Measured values from PMC10024865 (Journal of medicinal chemistry, 2022).

Legend:
PC3M cells [1] = test: Secondary cytotoxicity/viability assays; assay type: cell-based; details: ATP, caspase 3/7, PicoGreen
PC3M cells [2] = test: BellBrook Labs tumor cell migration; assay type: cell-based; details: 3D collagen
[3] = test system: PNC prevalence in PC3M cells (GFP-PTB); test: High-content assay for PNC reduction; assay type: cell-based
[4] = mouse, in vivo, ip, 5 mg/kg
in vivo = details: ip
[5] = test system: nucleolar volume in PC3M cells; test: Nucleolar disassembly assay; assay type: cell-based; details: 24 hr, concentration-response
[6] = Parallel artificial membrane permeability assay; assay type: in vitro ADME; details: pH 7.4
[7] = test system: nucleolar architecture in PC3M cells; test: Immunofluorescence of nucleolar markers RP-194 and NOPP140; assay type: cell-based; details: 1 μM, 1 hour

With `O=C(Nc1cccnc1)c1cccs1` [CID 790407] the “Activity in all other secondary cytotoxicity/viability assays” value (PC3M cells [1]) was “inactive” and the “Activity in the invasion assay” value (PC3M cells [2]) was “active”.
In the case of `N#Cc1c(-c2ccccc2)c(-c2ccccc2)n(Cc2ccccc2)c1N` [Compound 2a], the “PNC reduction activity (in words)” value [3] was “inactive”.
For `CCO/C=N/c1c(C#N)c(-c2ccccc2)c(-c2ccccc2)n1Cc1ccccc1` [Compound 3a, Ethyl (E)-N-(1-benzyl-3-cyano-4,5-diphenyl-1H-pyrrol-2-yl)formimidate], the “PNC reduction activity (in words)” value [3] was “inactive”.
For `N#Cc1c(-c2ccccc2)c(-c2ccccc2)n(Cc2ccccc2)c1/N=C/N[C@H]1CC[C@H](O)CC1` [Compound 4f, (E)-N'-(1-benzyl-3-cyano-4,5-diphenyl-1H-pyrrol-2-yl)-N-((trans)-4-hydroxycyclohexyl)formimidamide], the “PNC reduction activity (in words)” value [3] was “inactive”.
For `N=c1c2c(-c3ccccc3)c(-c3ccccc3)n(Cc3ccccc3)c2ncn1[C@H]1CC[C@H](O)CC1` [Compound 5f, trans-4-(7-Benzyl-4-imino-5,6-diphenyl-4,7-dihydro-3H-pyrrolo[2,3-d]pyrimidin-3-yl)cyclohexan-1-ol], the “C48h (μM)” value [4] was “BLQ^b”, the half-life (in vivo; female, BALB/c, mouse, 5 mg/kg) was 4.64 h and the half-life (in vivo; female, BALB/c, mouse, 25 mg/kg) was 5.52 h. For the same molecule, the concentration at 48 h (in vivo; female, BALB/c, mouse, 25 mg/kg, C48h (μM)) was 0.011 µM, the half-life (in vivo; male, C57BL/6, mouse, 50 mg/kg) was 16.4 h and the “effect on nucleolar volume” value [5] was “able to reduce nucleolar volume”.
With `Cc1c(C)n(Cc2ccccc2)c2ncn([C@H]3CC[C@H](O)CC3)c(=N)c12` [Compound 5nnn, (trans)-4-(7-Benzyl-4-imino-5,6-dimethyl-4,7-dihydro-3H-pyrrolo[2,3-d]pyrimidin-3-yl)cyclohexan-1-ol] the “PAMPA permeability (in words)” value [6] was “negligible”.
For `N=c1c2c(-c3ccccc3)cn(Cc3ccccc3)c2ncn1C1CCOCC1` [Compound 11b, 7-Benzyl-5-phenyl-3-(tetrahydro-2H-pyran-4-yl)-3,7-dihydro-4H-pyrrolo[2,3-d]pyrimidin-4-imine], the “distribution of RP-194 and NOPP140 in the nucleolus” value [7] was “diffuse distribution” and the “effect on nucleolar volume” value [5] was “did not influence nucleolar integrity and morphology”.
For `OCCCNc1ncnc2c1c(-c1ccccc1)c(-c1ccccc1)n2Cc1ccccc1` [Compound 13a, 3-((7-Benzyl-5,6-diphenyl-7H-pyrrolo[2,3-d]pyrimidin-4-yl)amino)propan-1-ol], the “PNC reduction activity (in words)” value [3] was “uniformly inactive”.
With `O[C@H]1CC[C@H](Nc2ncnc3c2c(-c2ccccc2)c(-c2ccccc2)n3Cc2ccccc2)CC1` [Compound 13b, trans-4-((7-Benzyl-5,6-diphenyl-7H-pyrrolo[2,3-d]pyrimidin-4-yl)amino)cyclohexan-1-ol] the “PNC reduction activity (in words)” value [3] was “uniformly inactive”.
